Results taken from US20250197388A1, “COMPOUNDS, PHARMACEUTICAL COMPOSITIONS AND METHODS FOR TREATING INFLAMMATORY BOWEL DISEASE” (FLAGSHIP PIONEERING INNOVATIONS VI, LLC, priority 2022, published 2025).

Assays:
[1] = Compound interconversion monitored by 1H-NMR in neutral aqueous buffer; assay type: physicochemical; conditions: 37° C. in the neutral aqueous buffer
Protocol: This examples provide the kinetics of compounds A-2 and A-3. More specifically, A-6 is a mixture of compounds A-2 and A-3 and interconvert in solutions.
In this example, A-6 was combined with […] of Na3PO4, DCl, and D2O at a pH of 7-7.5. This solution was then monitored using 1H-NMR at 37° C.
Interconversion between compounds A-2 and A-3 was seen and monitored for 5 days. See, Table 1.

Dectin-1b = molecular target: T1, Dectin-1b (Homo sapiens, UniProt Q9BXN2); experiment: Dectin-1 assay, HEK-Blue Dectin-1b SEAP reporter cells stimulated with beta-glucan peptide (BGP); assay type: cell-based; conditions: HEK-Blue Dectin-1b cells; compounds at 1, 10 or 30 μM for 6 hours, then BGP 30 μg/mL 16-18 hours; SEAP adjusted by cell viability
T1 construct: host or cells: HEK-Blue Dectin-1b reporter cells (HEK293-derived)
T1 sequence (Q9BXN2 1-201 isoform Q9BXN2-2): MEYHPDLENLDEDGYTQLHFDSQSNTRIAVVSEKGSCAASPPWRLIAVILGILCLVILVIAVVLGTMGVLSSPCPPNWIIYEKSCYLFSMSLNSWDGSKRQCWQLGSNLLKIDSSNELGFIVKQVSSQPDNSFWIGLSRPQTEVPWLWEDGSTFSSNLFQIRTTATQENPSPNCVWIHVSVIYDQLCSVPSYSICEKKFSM
Protocol: Compounds described herein are added to mammalian cells for bioactivity assessment. The HEK-Blue Dectin-1b cells line (InVivoGen) releases a reporter protein (secreted embryonic alkaline phosphatase, SEAP) to the culture supernatant in response to Dectin-1 activation. HEK-Blue reporter cells were grown in DMEM culture media with 10% decomplemented fetal calf serum (InvivoGen, 1% Pen/Strep antibiotic (InvivoGen), 0.2% Normocin antibiotic (InvivoGen). On the day prior to the assay, cells were seeded in a 96 flat-bottom well plate at 50,000 cells/well and further incubated for 20 hours. On the day of the assay cells were incubated with 1 μM, 10 μM or 30 μM of the compounds described herein or with 1 μM of the SYKi IV Dectin-1b Inhibitor (Millipore) or with DMSO (vehicle control) for 6 hours, followed by the addition of beta-glucan peptide (BGP, a Dectin-1 ligand at 30 μg/mL) and incubation for 16-18 hours. After incubation was concluded, the cultures supernatants were collected and Dectin-1 related activity was assessed by measurement of the SEAP-reporter protein presence, using Quanti-Blue assay (Invivogen) and these values were adjusted by the Cell Viability levels that was assessed using the Cell-Titer-Glo2 Reagent (Promega).
Results represent cell number adjusted SEAP levels in a triplicate setting for each condition and cell numbers and viability corrections reflected less than 5% corrections. See, e.g., FIG. 1 for compound A-3.

[2] = system: Zymosan-induced production of IL-12p40 in monocyte-derived dendritic cells; experiment: Monocyte derived DC (MoDC) assay, Zymosan-induced IL-12p40 (Luminex/ELISA); assay type: cell-based, human
Text: Monocyte derived DC (MoDC) were differentiated from healthy human donor derived CD14+ monocytes. Commercially available freshly prepared Leukopaks were obtained from healthy blood donor and kept refrigerated on ice before spin centrifuged and the pelleted cells are rinsed and resuspended with MACS buffer (Miltenyi Biotec). Next, CD14+ monocytes were purified using MultiMACS™ Cell24 Separator-Plus instrumentation and reagents according to the manufacturer (Miltenyi Biotec) instructions. The resulting purified CD14^+ cell fraction was washed, enumerated, and subsequently cryopreserved for later use. At the experiment first day cryopreserved CD14′ cells were thawed, rinsed with culture media, and then resuspended in culture media principally composed of RPMI (Invitrogen) supplemented with 10% v/v heat inactivated FBS. For generation of MoDC, these CD14^+ cells were enumerated and seeded into 75 cm^2 tissue culture flasks in 30 mL of culture media supplemented with GM-CSF (40-100 ng/mL) and IL-4 (25 ng/mL). Every other day, half of the culture media was replaced with fresh media (containing the same cytokine supplementation) and after 6-7 days of culture, fully differentiated and matured MoDC were obtained as confirmed by conventional Immuno-phenotype markers (levels of expression or absence of surface CD80, CD83, CD86, CD209, HLA-DR, CD14 & CD64) that were verified by flow-cytometry. Fully differentiated (mature) MoDCs, were seeded into 96 flat-well plates and incubated with a various concentration of the compound described herein, or with control solution (DMSO), or with the pharmacologic inhibitors Cyclosporin-A (CsA) and BAY 61-3606 (which is a known inhibitor of Syk kinase) for 6 hours. Next, the MoDC culture well were added with Dectin-1(CLEC7a1)-ligand (Zymosan at 5 μg/mL), or the Toll-like receptor agonist R848, and further incubated for 18-20 hours. After incubation concluded, culture supernatants were collected, and the levels of inflammatory cytokines and chemokines was measured in a triplicate setting for each condition by Luminex® multiplex assay (FIG. 2) or by ELISA (FIG. 3).

time to nearly reach interconversion equilibrium [1]: about 3 hours
Structure (SMILES): CN1[C@@H](C(=O)O)CS[C@@H]1[C@@H]1CSC(c2ccccc2O)=N1 (single isomer, unassigned) [Compound A-2]
Activity (Dectin-1b): <30 µM
inhibition of Zymosan-induced production of IL-12p40 ([2]; MoDC from healthy human donors 1, 2 and 3, 15.5 nM to 1 μM (FIGS. 6A-6C)): inhibition
concentration of maximal inhibition of Zymosan-induced IL-12p40 ([2]; donors 1, 2 and 3, the highest concentration tested): 1 µM
